Publication PMC12102759 (Protein Science : A Publication of the Protein Society, 2025)

System: G3BP1 NFT2
Assay type: binding, human
Settings: library DMS-CoV, bait G3BP1 NFT2, prey N, listed as aa = residue placed at this position, column sums to 1

APRITFGGPSDSTGSN G8Y (APRITFGYPSDSTGSN)
DMS PSSM value, G (position 8) (peptide APRITFGGPSDSTGSN): 0.02437

APRITFGGPSDSTGSN R3W (APWITFGGPSDSTGSN)
DMS PSSM value, R (position 3) (peptide APRITFGGPSDSTGSN): 0.01451

RNAPRITFGGPSDSTG S14P (RNAPRITFGGPSDPTG)
DMS PSSM value, S (position 14) (peptide RNAPRITFGGPSDSTG): 0

RNAPRITFGGPSDSTG I6S (RNAPRSTFGGPSDSTG)
DMS PSSM value, I (position 6) (peptide RNAPRITFGGPSDSTG): 0

RNAPRITFGGPSDSTG G10A (RNAPRITFGAPSDSTG)
DMS PSSM value, G (position 10) (peptide RNAPRITFGGPSDSTG): 1

RNAPRITFGGPSDSTG A3W (RNWPRITFGGPSDSTG)
DMS PSSM value, A (position 3) (peptide RNAPRITFGGPSDSTG): 0

RNAPRITFGGPSDSTG P4D (RNADRITFGGPSDSTG)
DMS PSSM value, P (position 4) (peptide RNAPRITFGGPSDSTG): 0

RNAPRITFGGPSDSTG I6P (RNAPRPTFGGPSDSTG)
DMS PSSM value, I (position 6) (peptide RNAPRITFGGPSDSTG): 0

APRITFGGPSDSTGSN S10H (APRITFGGPHDSTGSN)
DMS PSSM value, S (position 10) (peptide APRITFGGPSDSTGSN): 0

APRITFGGPSDSTGSN S12L (APRITFGGPSDLTGSN)
DMS PSSM value, S (position 12) (peptide APRITFGGPSDSTGSN): 0.001118

APRITFGGPSDSTGSN S15E (APRITFGGPSDSTGEN)
DMS PSSM value, S (position 15) (peptide APRITFGGPSDSTGSN): 0.0004817

RNAPRITFGGPSDSTG D13G (RNAPRITFGGPSGSTG)
DMS PSSM value, D (position 13) (peptide RNAPRITFGGPSDSTG): 0

RNAPRITFGGPSDSTG D13I (RNAPRITFGGPSISTG)
DMS PSSM value, D (position 13) (peptide RNAPRITFGGPSDSTG): 0

RNAPRITFGGPSDSTG N2P (RPAPRITFGGPSDSTG)
DMS PSSM value, N (position 2) (peptide RNAPRITFGGPSDSTG): 0

APRITFGGPSDSTGSN S15Y (APRITFGGPSDSTGYN)
DMS PSSM value, S (position 15) (peptide APRITFGGPSDSTGSN): 0.1419

RNAPRITFGGPSDSTG D13W (RNAPRITFGGPSWSTG)
DMS PSSM value, D (position 13) (peptide RNAPRITFGGPSDSTG): 0

APRITFGGPSDSTGSN I4L (APRLTFGGPSDSTGSN)
DMS PSSM value, I (position 4) (peptide APRITFGGPSDSTGSN): 0

APRITFGGPSDSTGSN I4P (APRPTFGGPSDSTGSN)
DMS PSSM value, I (position 4) (peptide APRITFGGPSDSTGSN): 0

APRITFGGPSDSTGSN R3L (APLITFGGPSDSTGSN)
DMS PSSM value, R (position 3) (peptide APRITFGGPSDSTGSN): 0.2826

RNAPRITFGGPSDSTG D13N (RNAPRITFGGPSNSTG)
DMS PSSM value, D (position 13) (peptide RNAPRITFGGPSDSTG): 0

APRITFGGPSDSTGSN S15N (APRITFGGPSDSTGNN)
DMS PSSM value, S (position 15) (peptide APRITFGGPSDSTGSN): 0.001916

APRITFGGPSDSTGSN S12D (APRITFGGPSDDTGSN)
DMS PSSM value, S (position 12) (peptide APRITFGGPSDSTGSN): 0

APRITFGGPSDSTGSN F6Y (APRITYGGPSDSTGSN)
DMS PSSM value, F (position 6) (peptide APRITFGGPSDSTGSN): 0.004533

APRITFGGPSDSTGSN F6H (APRITHGGPSDSTGSN)
DMS PSSM value, F (position 6) (peptide APRITFGGPSDSTGSN): 0

APRITFGGPSDSTGSN I4Y (APRYTFGGPSDSTGSN)
DMS PSSM value, I (position 4) (peptide APRITFGGPSDSTGSN): 0

RNAPRITFGGPSDSTG I6K (RNAPRKTFGGPSDSTG)
DMS PSSM value, I (position 6) (peptide RNAPRITFGGPSDSTG): 0

RNAPRITFGGPSDSTG I6A (RNAPRATFGGPSDSTG)
DMS PSSM value, I (position 6) (peptide RNAPRITFGGPSDSTG): 0

APRITFGGPSDSTGSN P2S (ASRITFGGPSDSTGSN)
DMS PSSM value, P (position 2) (peptide APRITFGGPSDSTGSN): 0.0005858

APRITFGGPSDSTGSN I4V (APRVTFGGPSDSTGSN)
DMS PSSM value, I (position 4) (peptide APRITFGGPSDSTGSN): 0.03242

RNAPRITFGGPSDSTG I6E (RNAPRETFGGPSDSTG)
DMS PSSM value, I (position 6) (peptide RNAPRITFGGPSDSTG): 0

RNAPRITFGGPSDSTG S14R (RNAPRITFGGPSDRTG)
DMS PSSM value, S (position 14) (peptide RNAPRITFGGPSDSTG): 0

APRITFGGPSDSTGSN T13H (APRITFGGPSDSHGSN)
DMS PSSM value, T (position 13) (peptide APRITFGGPSDSTGSN): 0.0006139

APRITFGGPSDSTGSN G7W (APRITFWGPSDSTGSN)
DMS PSSM value, G (position 7) (peptide APRITFGGPSDSTGSN): 0

APRITFGGPSDSTGSN G8Q (APRITFGQPSDSTGSN)
DMS PSSM value, G (position 8) (peptide APRITFGGPSDSTGSN): 0

RNAPRITFGGPSDSTG T15F (RNAPRITFGGPSDSFG)
DMS PSSM value, T (position 15) (peptide RNAPRITFGGPSDSTG): 0

APRITFGGPSDSTGSN S15H (APRITFGGPSDSTGHN)
DMS PSSM value, S (position 15) (peptide APRITFGGPSDSTGSN): 0.01115

RNAPRITFGGPSDSTG D13P (RNAPRITFGGPSPSTG)
DMS PSSM value, D (position 13) (peptide RNAPRITFGGPSDSTG): 1

RNAPRITFGGPSDSTG G10V (RNAPRITFGVPSDSTG)
DMS PSSM value, G (position 10) (peptide RNAPRITFGGPSDSTG): 0

APRITFGGPSDSTGSN P9L (APRITFGGLSDSTGSN)
DMS PSSM value, P (position 9) (peptide APRITFGGPSDSTGSN): 0

RNAPRITFGGPSDSTG G16S (RNAPRITFGGPSDSTS)
DMS PSSM value, G (position 16) (peptide RNAPRITFGGPSDSTG): 0

APRITFGGPSDSTGSN A1T (TPRITFGGPSDSTGSN)
DMS PSSM value, A (position 1) (peptide APRITFGGPSDSTGSN): 0.07786

APRITFGGPSDSTGSN S10V (APRITFGGPVDSTGSN)
DMS PSSM value, S (position 10) (peptide APRITFGGPSDSTGSN): 0.01109

APRITFGGPSDSTGSN D11A (APRITFGGPSASTGSN)
DMS PSSM value, D (position 11) (peptide APRITFGGPSDSTGSN): 0.0135

RNAPRITFGGPSDSTG G16T (RNAPRITFGGPSDSTT)
DMS PSSM value, G (position 16) (peptide RNAPRITFGGPSDSTG): 0

APRITFGGPSDSTGSN I4W (APRWTFGGPSDSTGSN)
DMS PSSM value, I (position 4) (peptide APRITFGGPSDSTGSN): 0

APRITFGGPSDSTGSN S15A (APRITFGGPSDSTGAN)
DMS PSSM value, S (position 15) (peptide APRITFGGPSDSTGSN): 0.001992

RNAPRITFGGPSDSTG P4E (RNAERITFGGPSDSTG)
DMS PSSM value, P (position 4) (peptide RNAPRITFGGPSDSTG): 0.9115

APRITFGGPSDSTGSN D11E (APRITFGGPSESTGSN)
DMS PSSM value, D (position 11) (peptide APRITFGGPSDSTGSN): 0.08423

RNAPRITFGGPSDSTG R5S (RNAPSITFGGPSDSTG)
DMS PSSM value, R (position 5) (peptide RNAPRITFGGPSDSTG): 0.002286

RNAPRITFGGPSDSTG T7Y (RNAPRIYFGGPSDSTG)
DMS PSSM value, T (position 7) (peptide RNAPRITFGGPSDSTG): 0

APRITFGGPSDSTGSN G14E (APRITFGGPSDSTESN)
DMS PSSM value, G (position 14) (peptide APRITFGGPSDSTGSN): 0.002668

RNAPRITFGGPSDSTG S14I (RNAPRITFGGPSDITG)
DMS PSSM value, S (position 14) (peptide RNAPRITFGGPSDSTG): 0

RNAPRITFGGPSDSTG R5G (RNAPGITFGGPSDSTG)
DMS PSSM value, R (position 5) (peptide RNAPRITFGGPSDSTG): 0

RNAPRITFGGPSDSTG P11T (RNAPRITFGGTSDSTG)
DMS PSSM value, P (position 11) (peptide RNAPRITFGGPSDSTG): 0

RNAPRITFGGPSDSTG P11I (RNAPRITFGGISDSTG)
DMS PSSM value, P (position 11) (peptide RNAPRITFGGPSDSTG): 0

RNAPRITFGGPSDSTG S14E (RNAPRITFGGPSDETG)
DMS PSSM value, S (position 14) (peptide RNAPRITFGGPSDSTG): 0

APRITFGGPSDSTGSN A1E (EPRITFGGPSDSTGSN)
DMS PSSM value, A (position 1) (peptide APRITFGGPSDSTGSN): 0.1097

APRITFGGPSDSTGSN D11M (APRITFGGPSMSTGSN)
DMS PSSM value, D (position 11) (peptide APRITFGGPSDSTGSN): 0.4258

RNAPRITFGGPSDSTG G9N (RNAPRITFNGPSDSTG)
DMS PSSM value, G (position 9) (peptide RNAPRITFGGPSDSTG): 0

RNAPRITFGGPSDSTG A3Q (RNQPRITFGGPSDSTG)
DMS PSSM value, A (position 3) (peptide RNAPRITFGGPSDSTG): 0

APRITFGGPSDSTGSN T13G (APRITFGGPSDSGGSN)
DMS PSSM value, T (position 13) (peptide APRITFGGPSDSTGSN): 0.00113

RNAPRITFGGPSDSTG G9K (RNAPRITFKGPSDSTG)
DMS PSSM value, G (position 9) (peptide RNAPRITFGGPSDSTG): 0

RNAPRITFGGPSDSTG I6N (RNAPRNTFGGPSDSTG)
DMS PSSM value, I (position 6) (peptide RNAPRITFGGPSDSTG): 0

RNAPRITFGGPSDSTG T7S (RNAPRISFGGPSDSTG)
DMS PSSM value, T (position 7) (peptide RNAPRITFGGPSDSTG): 0

APRITFGGPSDSTGSN G7V (APRITFVGPSDSTGSN)
DMS PSSM value, G (position 7) (peptide APRITFGGPSDSTGSN): 0

RNAPRITFGGPSDSTG T7L (RNAPRILFGGPSDSTG)
DMS PSSM value, T (position 7) (peptide RNAPRITFGGPSDSTG): 0

RNAPRITFGGPSDSTG P11A (RNAPRITFGGASDSTG)
DMS PSSM value, P (position 11) (peptide RNAPRITFGGPSDSTG): 0

APRITFGGPSDSTGSN T13K (APRITFGGPSDSKGSN)
DMS PSSM value, T (position 13) (peptide APRITFGGPSDSTGSN): 0

APRITFGGPSDSTGSN D11V (APRITFGGPSVSTGSN)
DMS PSSM value, D (position 11) (peptide APRITFGGPSDSTGSN): 0.02861

RNAPRITFGGPSDSTG P4T (RNATRITFGGPSDSTG)
DMS PSSM value, P (position 4) (peptide RNAPRITFGGPSDSTG): 0

RNAPRITFGGPSDSTG N2Q (RQAPRITFGGPSDSTG)
DMS PSSM value, N (position 2) (peptide RNAPRITFGGPSDSTG): 0

RNAPRITFGGPSDSTG T7G (RNAPRIGFGGPSDSTG)
DMS PSSM value, T (position 7) (peptide RNAPRITFGGPSDSTG): 0

APRITFGGPSDSTGSN F6M (APRITMGGPSDSTGSN)
DMS PSSM value, F (position 6) (peptide APRITFGGPSDSTGSN): 0

APRITFGGPSDSTGSN P9K (APRITFGGKSDSTGSN)
DMS PSSM value, P (position 9) (peptide APRITFGGPSDSTGSN): 0

RNAPRITFGGPSDSTG I6Q (RNAPRQTFGGPSDSTG)
DMS PSSM value, I (position 6) (peptide RNAPRITFGGPSDSTG): 0

RNAPRITFGGPSDSTG T7N (RNAPRINFGGPSDSTG)
DMS PSSM value, T (position 7) (peptide RNAPRITFGGPSDSTG): 0
